According to ChEMBL document CHEMBL1126439, “Synthesis, biochemical activity and behavioral effects of a series of 1,4,5,6-tetrahydropyrimidines as novel ligands for M1 receptors” (Bioorg Med Chem Lett, 1992):

Legend:
Rattus norvegicus [1] = species: Rattus norvegicus; experiment: Ability to stimulate PI (phospho inositol) metabolism in rat cerebral cortex at 100 uM concentration; type: functional
[2] = target: Muscarinic acetylcholine receptor
Description: Inhibition of [3H](R)-QNB binding to muscarinic receptor in rat brain membranes

Rattus norvegicus [3] = species: Rattus norvegicus; experiment: Compound was evaluated for its ability to stimulate PI (phospho inositol) metabolism in the rat hippocampal slices; type: functional, Hippocampus
Rattus norvegicus [4] = species: Rattus norvegicus; experiment: Compound was evaluated for its ability to stimulate PI (phospho inositol) metabolism in the rat hippocampal slices, the 50% effective concentration was reported; type: functional; details: Hippocampus
Rattus norvegicus [5] = species: Rattus norvegicus; experiment: cells; details: Hippocampus
Description: Inhibition of PI (phospho inositol) response in rat hippocampus by the selective antagonist AF-DX 116 in the presence of 50 uM concentration of the compound

Rattus norvegicus [6] = species: Rattus norvegicus; experiment: cells; details: Hippocampus; remark: listed apart in the source
Description: Inhibition of PI (phospho inositol) response in rat hippocampus by the selective antagonist pirenzepine in the presence of 50 uM concentration of the compound

Rattus norvegicus [7] = species: Rattus norvegicus; experiment: tissue or blood; details: Hippocampus
Description: Effective concentration to stimulate PI (phospho inositol) metabolism in the rat hippocampal slices

SMILES | Activity (Rattus norvegicus [1]) | Stimulation (Rattus norvegicus [3]) | also measured
Cl.O=C(OCc1ccccc1)C1CN=CNC1 (centres undefined) | 3.5 |  | IC50 [2]: 2600 nM
CC(=O)OC1CN=CNC1.Cl (centres undefined) | 45 | 70% | IC50 [2]: 32000 nM
CC(C)OC(=O)C1CN=CNC1.Cl (centres undefined) | 7.2 |  | 
COC(=O)C1CN=CNC1.Cl (centres undefined) | 130 | 240% | EC50 (Rattus norvegicus [4]): 55000 nM; IC50 (Rattus norvegicus [5]): 750 nM; IC50 (Rattus norvegicus [6]): 44 nM
CCOC(=O)C1CN=CNC1.Cl (centres undefined) | 150 |  | 
C#CCOC(=O)C1CN=CNC1.Cl (centres undefined) | 230 |  | 
CCCOC(=O)C1CN=CNC1.Cl (centres undefined) | 7.1 |  | 
CC(=O)OC1CN2CCC1CC2 (centres undefined) [ACECLIDINE] |  | 300% | IC50 (Rattus norvegicus [5]): 280 nM; IC50 (Rattus norvegicus [6]): 120 nM; EC50 (Rattus norvegicus [7]): 21000 nM
C[N+](C)(C)CCOC(N)=O.[Cl-] [CARBACHOL] | 580 |  | 
